The source of these data is patent US7824868B2, “Formation of superfibronectin by BBK32 and uses therefor” (priority 2007, dated 2010).

Assay [1] deals with leukocyte (mononuclear cell) migration across endothelial cell layer. As to the kind of experiment: Transendothelial migration assay (Transwell). It is filed as cell-based. The following applies: IL-4 treated endothelial layer, IL-8 chemoattractant, four hours. As for the experimental part:
To determine if sFn decrease the migration of leukocytes to the infection site, transendothelial migration assays were assessed. In these assays endothelial cells were grown to confluence in Transwell® inserts and were encouraged to form tight junctions using interleukin 4 (IL-4). SFn formation was then induced to form on the surface of the endothelial cell layer using BBK32 (21-354), (21-205) and (153-175). A chemoattractant (IL-8) was added to the bottom chamber of the Transwell setup. Mononuclear cells were added to the upper chamber and permitted to migrate for four hours. Following incubation, cells in the bottom chamber were counted.

Assay [2] concerns purified plasma fibronectin. As to the kind of experiment: Fibronectin aggregation assay (O.D.600). The format is biochemical, human. To be noted: 1 μM purified plasma fibronectin, absorbance at 600 nm. Here is the method:
BBK32, FnbpA peptide D3, Anastellin, and purified plasma fibronectin were centrifuged at 14,000 rpm for 15 minutes and then filtered through 0.22 μm PES syringe filters (Nalgene, Rochester, N.Y.). Following filtration, BBK32, FnbpA peptide D3, and Anastellin were titrated into 1 μM purified plasma fibronectin in TBS. After the addition of each aliquot, the fibronectin/protein mixture was carefully mixed five times with a 200 μl pipette and optical density at 600 nm was measured using a BioPhotometer (Eppendorf, New York, N.Y.) after 10 seconds.

The test system of assay [3] is human umbilical vein endothelial cells (HUVECs). As to the kind of experiment: Endothelial cell proliferation assay. It is filed as cell-based. To be noted: 72 hours, cell counts. As for the experimental part:
Cells were seeded onto tissue culture plates in full media and allowed to adhere for two hours. […] Cells were then incubated for 72 hours at 37° C., 5% CO2. After 72 hours, wells were washed, trypsinized, and counted (three counts/well, three wells/dose) using a hemacytometer.
1×10^4 human umbilical vein endothelial cells (HUVECs) (Cambrex) were seeded into Costar 24 well tissue culture plates in endothelial growth media-2 (EGM-2) (Cambrex) and allowed to adhere for two hours. After two hours, BBK32, Anastellin, and FnbpA peptide D3 were added in a dose dependent manner (triplicate) to the wells suspended in EGM-2. Cells were allowed to incubate for 72 hours at 37° C., 5% CO2. After 72 hours, wells were washed with PBS and cells were trypsinized with 0.5% trypsin/EDTA (Cambrex). Trypsinized cells were collected in microcentrifuge tubes and trypsin/EDTA was neutralized with EGM-2. Cells were counted from each well (three counts/well, three wells/dose) using a hemacytometer.

Assay [4] deals with fibronectin matrix of normal human dermal fibroblasts (NHDFs). Kind of assay: Effects on fibronectin matrix assembled by normal human dermal fibroblasts (immunostaining). The following applies: 5 μM, 20 hours. The format is cell-based. Here is the method:
Cells were treated for 20 hours and then fixed. […] Treated cells were incubated for 20 hours and probed with Alexa Fluor 488-anti-fibronectin, monoclonal antibody IST-1, and monoclonal antibody IST-9. Images were taken using LSM 510 Confocal Microscope. Bar=10 μm.
4×10^4 adult normal human dermal fibroblasts (NHDFs) (Cambrex, East Rutherford, N.J.) were seeded onto glass coverslips in 24 well Costar tissue culture plates in Fibroblast growth media-2 (FGM-2) (Cambrex). Cells were allowed to grow for 48 hours and then BBK32, Anastellin, or FnbpA peptide D3 was added to a final concentration of 5 μM in FGM-2. Treated cells were incubated for 20 hours at 37° C., 5% CO2. After incubation, cells were washed with Dulbecco's PBS (DPBS) (Gibco, Invitrogen, Carlsbad, Calif.) and fixed with 2% paraformaldehyde for 30 minutes at room temperature. Following washing with DPBS, cells were blocked with 1% BSA for one hour at room temperature. Cells were then probed with Alexa Fluor 488-anti-fibronectin, Texas Red anti-His, monoclonal antibodies IST-1 (plasma and cellular fibronectin) and IST-9 (cellular fibronectin) (abcam, Cambridge, UK) or combinations of antibodies at a dilution of 1:3000 for one hour at room temperature. Following extensive washing with DPBS, appropriate fluorescently labeled secondary antibodies (Alexa Fluor 594-goat anti-mouse) (Invitrogen, Carlsbad, Calif.) were added at a dilution of 1:3000 and incubated for one hour at room temperature. After incubation, cells were washed extensively with DPBS and coverslips were mounted using Gel/Mount (biømeda, Foster City, Calif.) onto glass slides and images were taken using a LSM 510 Confocal Microscope (Zeiss).

Sequence of purified plasma fibronectin (P02751 32-1265 limits assumed): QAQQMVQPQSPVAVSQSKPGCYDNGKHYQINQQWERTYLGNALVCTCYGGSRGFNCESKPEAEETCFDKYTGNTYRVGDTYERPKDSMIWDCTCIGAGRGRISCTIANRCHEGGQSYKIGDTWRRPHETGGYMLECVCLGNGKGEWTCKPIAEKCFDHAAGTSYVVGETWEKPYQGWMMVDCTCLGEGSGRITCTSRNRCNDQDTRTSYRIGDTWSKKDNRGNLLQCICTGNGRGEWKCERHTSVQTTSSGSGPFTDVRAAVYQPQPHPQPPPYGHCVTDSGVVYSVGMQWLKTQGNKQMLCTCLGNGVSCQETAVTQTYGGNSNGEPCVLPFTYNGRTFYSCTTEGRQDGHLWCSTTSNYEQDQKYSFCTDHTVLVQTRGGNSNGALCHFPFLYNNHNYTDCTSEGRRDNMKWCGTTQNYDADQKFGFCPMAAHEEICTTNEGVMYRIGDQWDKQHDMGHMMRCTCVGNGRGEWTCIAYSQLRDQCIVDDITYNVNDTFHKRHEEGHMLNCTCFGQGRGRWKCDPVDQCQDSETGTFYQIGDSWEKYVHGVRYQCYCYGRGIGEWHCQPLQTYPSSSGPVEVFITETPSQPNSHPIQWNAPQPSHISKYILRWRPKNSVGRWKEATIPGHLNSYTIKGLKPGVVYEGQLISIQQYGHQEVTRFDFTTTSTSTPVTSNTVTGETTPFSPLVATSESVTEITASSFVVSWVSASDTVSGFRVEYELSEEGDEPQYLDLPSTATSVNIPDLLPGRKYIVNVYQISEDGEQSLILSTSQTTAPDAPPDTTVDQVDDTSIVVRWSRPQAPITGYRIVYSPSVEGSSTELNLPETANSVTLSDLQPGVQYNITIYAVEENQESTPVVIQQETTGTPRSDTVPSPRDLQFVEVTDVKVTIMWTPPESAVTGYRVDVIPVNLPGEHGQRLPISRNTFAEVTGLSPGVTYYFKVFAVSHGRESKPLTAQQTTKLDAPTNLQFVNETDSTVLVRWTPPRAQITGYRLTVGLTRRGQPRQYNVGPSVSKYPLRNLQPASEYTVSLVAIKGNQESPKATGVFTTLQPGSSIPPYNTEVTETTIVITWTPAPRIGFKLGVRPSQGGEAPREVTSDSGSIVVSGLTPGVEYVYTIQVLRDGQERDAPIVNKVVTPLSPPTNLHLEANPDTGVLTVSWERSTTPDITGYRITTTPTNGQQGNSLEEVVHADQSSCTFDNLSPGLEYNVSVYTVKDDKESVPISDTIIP

With “IDLTIDSDLRPKSSLQGIAGSNS (recombinant peptide from residues 153-175 of BBK32) [BBK32(153-175), BBK32 peptide, residues 153-175, containing the motifs similar to anastellin]”, the “inhibition of transendothelial migration by induced sFn” value in assay [1] is on record as “as effective at inhibiting transendothelial migration as the full length BBK32 protein”. Moreover, the “induction of plasma fibronectin aggregation (in words)” value in assay [2] was “induce aggregation of plasma fibronectin in a concentration dependent manner”. For the same sequence, the “effect on proliferation of endothelial cells (in words)” value in assay [3] is “inhibits human umbilical vein endothelial cell proliferation in a concentration dependent manner”. In addition, the “immunostaining with monoclonal antibody IST 9 (EDA epitope of cellular fibronectin)” value in assay [4] is reported as “indicates conformational changes in fibronectin in matrices produced by fibroblasts”.
